This note sets out measurements from publication PMC8049054, “Systematic Assessment of Fragment Identification for Multitarget Drug Design” (Chemmedchem, 2021).

What all share (type): binding
One experiment has as its target T1, LTA4H (Homo sapiens, UniProt P09960).
T1 construct: made in house; host or cells: E. coli BL21 (DE3)
T1 sequence (P09960 1-611): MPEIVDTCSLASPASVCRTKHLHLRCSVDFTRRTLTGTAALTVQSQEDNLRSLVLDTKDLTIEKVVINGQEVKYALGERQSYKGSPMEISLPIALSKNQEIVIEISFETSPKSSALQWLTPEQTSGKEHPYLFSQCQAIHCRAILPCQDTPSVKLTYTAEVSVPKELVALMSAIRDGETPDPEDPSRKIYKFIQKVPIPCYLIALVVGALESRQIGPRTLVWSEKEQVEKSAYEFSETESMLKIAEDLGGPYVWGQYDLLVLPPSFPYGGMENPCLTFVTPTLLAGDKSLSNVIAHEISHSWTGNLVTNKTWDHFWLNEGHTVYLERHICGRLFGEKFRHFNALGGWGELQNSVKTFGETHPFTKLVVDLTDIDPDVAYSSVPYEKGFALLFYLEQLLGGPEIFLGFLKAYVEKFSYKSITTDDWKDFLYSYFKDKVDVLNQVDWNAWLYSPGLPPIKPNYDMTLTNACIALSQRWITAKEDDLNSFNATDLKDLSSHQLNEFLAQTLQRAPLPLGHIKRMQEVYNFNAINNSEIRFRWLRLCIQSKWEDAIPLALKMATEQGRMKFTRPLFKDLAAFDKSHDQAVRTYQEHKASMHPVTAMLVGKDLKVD
The experiment can be described thus: ITC measurement LTA4H. The settings on record: 25 °C, read-out: LTA4H K d.

The target of the next experiment is T2, sEH-H (Homo sapiens, UniProt P34913).
T2 construct: For the expression of sEH-H and sEH-Fl transformed E.coli BL21 (DE3) cells were grown in 5052; made in house; host or cells: E. coli BL21 (DE3)
T2 sequence (P34913 235-555 limits assumed): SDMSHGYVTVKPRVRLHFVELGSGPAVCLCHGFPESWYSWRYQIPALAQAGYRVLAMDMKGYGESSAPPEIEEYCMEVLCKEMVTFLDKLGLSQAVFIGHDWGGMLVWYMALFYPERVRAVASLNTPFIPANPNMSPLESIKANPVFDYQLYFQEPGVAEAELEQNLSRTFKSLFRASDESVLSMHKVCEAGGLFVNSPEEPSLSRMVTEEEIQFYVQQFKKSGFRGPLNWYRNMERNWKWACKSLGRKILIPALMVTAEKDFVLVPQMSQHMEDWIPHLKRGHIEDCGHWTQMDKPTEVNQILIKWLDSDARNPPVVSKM
The experiment can be described thus: ITC measurement sEH-H. The note with it: 25 °C, read-out: sEH K d.

The next experiment deals with T3, RXRα (Homo sapiens, UniProt P19793).
T3 construct: MBP (N, cleaved yes); poly-N-tag, His8-tag, TEV site (N, cleaved yes); made in house; host or cells: E. coli T7-express with pGro7 (GroEL/ES)
T3 sequence (P19793 225-462): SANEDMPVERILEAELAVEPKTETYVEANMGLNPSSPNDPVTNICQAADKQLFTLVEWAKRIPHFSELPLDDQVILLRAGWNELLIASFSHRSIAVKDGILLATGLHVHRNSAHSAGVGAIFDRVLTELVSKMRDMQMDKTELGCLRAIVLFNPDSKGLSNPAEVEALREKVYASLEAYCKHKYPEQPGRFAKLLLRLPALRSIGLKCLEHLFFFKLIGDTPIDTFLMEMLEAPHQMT
Nature of the experiment: ITC measurement RXRα LBD. The arrangement: key: n.b.: no binding; w.b.: weak binding. The note with it: 50 μM protein, 250 μM compound, 25 °C. The procedure:
For hit validation, we employed secondary assays with orthogonal readouts to confirm fragment activities. Biochemical activity assays were chosen for the enzymes sEH, LTA4H, and 5‐LOX. […] RXRα and FXR modulation was assessed in cell‐based hybrid reporter gene assays. All ten compounds were tested at a single concentration of 500 μM in the sEH and LTA4H activity assays and with a concentration of 100 μM on 5‐LOX, RXRα, and FXR. Fragments showing an inhibition greater than 50 % (sEH‐H and LTA4H) or greater than 70 % (5‐LOX) as well as the hits determined in the DSF experiments were further characterized in full concentration‐response curves between 0.1 and 1000 μM. […] As alternative cell‐free assay we employed isothermal titration calorimetry (ITC) to determine binding affinity of the fragments towards the LBDs of both nuclear receptors. ITC was performed with a protein concentration of 50 μM and compound concentrations of 250 μM. […]
Final concentration per well was 3 nM sEH-Fl, 0.001 % Triton X-100, 25 mM Bis-tris, 0.1 mg/ml BSA, pH = 7.0, 1.6% DMSO […]

Molecules are shown by their SMILES.

As to `Oc1ccc(-c2ccc(F)cc2F)cc1` [Compound 9], the Kd at LTA4H was 5300 nM; at sEH-H, 3500 nM. Also, the “RXRα K d” value on RXRα is “n.b”.
Take `Fc1ccc(-c2c[nH]c3ccccc23)cc1` [Compound 10]: the values for the Kd at LTA4H and on sEH-H were 1700 nM and 860 nM, respectively. Besides, at RXRα, the “RXRα K d” value is given as “n.b”.
On to `c1ccc(N2CCNCC2)nc1` [Compound 1], for which the “RXRα K d” value at RXRα is “n.b”.
